From patent EP4289427A1, “DIHYDRO[1,8]NAPHTHYRIDIN-7-ONE AND PYRIDO[3,2-B][1,4]OXAZIN-3-ONE FOR USE IN TREATING CANCER, AND METASTASES IN PARTICULAR” (Anagenesis Biotechnologies, priority 2022, dated 2023)
pIC50: −log10 of the molar value.

Columns and labels:
RD cells = assay: Cytotoxicity assay (CellTiter-Glo 2.0) on RD cells; format: cell-based, Human; conditions: for pIC50: Homo sapiens
Experimental: (§1) Cytotoxicity assays consist in treating cells with compounds and assessing remaining viability after a defined incubation time, depending on the cell line. CellTiter-Glo® 2.0 reagent allows viability measurement by quantification of ATP present, which is an indicator of metabolically active cells.
(§2) The cancer cell lines were cultivated in their respective growth medium (see tables 6a and 6b). On day 0 of the cytotoxicity assay, the cells were harvested and seeded into a 384-well plate at a defined density in their respective growth medium (see tables 6a and 6b). Compounds to be tested were then added onto the cells and incubated for a defined duration (see tables 6a and 6b). Following incubation, CellTiter-Glo® 2.0 reagent (cat.no. G9241 from Promega) was added into the wells (vol/vol, according to the manufacturer's recommendations), plates were gently shaken and incubated for 10 minutes in the dark at room temperature. Bioluminescence was then measured with a multimode plate reader (Victor Nivo from Perkin Elmer), and cell viability and relative IC50 were determined. Table 6a: Cancer cell characteristics, culture and cytotoxic assay conditions

4T1 cells = assay: Cytotoxicity assay (CellTiter-Glo 2.0) on 4T1 cells; format: cell-based, Mouse; conditions: incubation 2 days; for pIC50: Mus musculus, 48 h
Experimental: as §1, §2

MDA-MB-231 cells = assay: Cytotoxicity assay (CellTiter-Glo 2.0) on MDA-MB-231 cells; format: cell-based, Human; conditions: incubation 3 days; for pIC50: Homo sapiens, 72 h
Experimental: as §1, §2

EoL-1 cells = assay: Cytotoxicity assay (CellTiter-Glo 2.0) on EoL-1 cells; format: cell-based, Human; conditions: incubation 1 day; for pIC50: Homo sapiens, EOL1, 24 h
Experimental: as §1, §2

HUVECs = assay: Tube formation assay (anti-angiogenic activity); format: cell-based, human; conditions: incubation 16 to 18 hours; for pIC50: Homo sapiens, HUVEC
Source text: Angiogenesis is a phenomenon that includes different processes, such as endothelial cell proliferation, migration and differentiation that lead to the formation of new blood vessels. Tube formation assay is a standard in vitro test to assess angiogenesis: briefly, human Umbilical Vein Endothelial cells (hereafter "HUVECs") cultivated on a gelled basement matrix spontaneously proliferate, migrate and differentiate to form tube-like structures, that appear elongated and that connect to each other to form a network.
HUVECs were cultivated in Endothelial Cell Growth Medium (cat.no. C-22010 from Promocell) supplemented with 1% PenStrep (hereafter "HUVEC medium"). On day 0, HUVECs were harvested and transferred into a 384-well plate precoated with 10 µl/well of Cultrex UltiMatrix Reduced Growth factor basement membrane (cat.no. BME001-10 from BioTechne), according to the manufacturer's instructions, at a density of 5000 cells/well in HUVEC medium. Compounds to be tested were then added onto the cells and incubated for 16 to 18 hours at 37°C. After this incubation period, the cells were stained with calcein-AM (cat.no. 10462052 from Fisher Scientific) and pictures were acquired using a confocal fluorescent microscope (IXM from Molecular Devices). Tube formation was measured with MetaXpress® Software.

SMILES | Cytotoxicity (RD cells; 2 day-treatment) | Cytotoxicity (RD cells; 4 day-treatment) | pIC50 (RD cells; 48 h, 2 day-treatment) | pIC50 (RD cells; 96 h, 4 day-treatment) | pIC50 (4T1 cells) | Cytotoxicity (4T1 cells) | pIC50 (MDA-MB-231 cells) | Cytotoxicity (MDA-MB-231 cells) | pIC50 (EoL-1 cells) | Cytotoxicity (EoL-1 cells) | pIC50 (HUVECs) | Angiogenesis inhibition (HUVECs)
CC(C)(C)c1cc(NC(=O)Nc2ccc(Oc3ccnc4c3OCC(=O)N4)cc2C(F)(F)F)n(-c2cccc(F)c2)n1 [Compound 014, 1-[5-tert-butyl-2-(3-fluorophenyl)pyrazol-3-yl]-3-[4-[(3-oxo-4H-pyrido[3,2-b][1,4]oxazin-8-yl)oxy]-2-(trifluoromethyl)phenyl]urea] | + (20 % ≤ cytotoxicity < 50%) | + (20 % ≤ cytotoxicity < 50%) | 5.00 to 5.30 | ≤ 5.00 | 5.30 to 6.00 | +++ (cytotoxicity ≥ 85%) | 5.30 to 6.00 | + (20 % ≤ cytotoxicity < 50%) | 7.00 to 8.00 | ++ (50% ≤ cytotoxicity < 85%) | 6.30 to 7.00 | +++ (angiogenesis inhibition ≥ 80%)
CC(C)(C)c1cc(NC(=O)Nc2ccc(Oc3ccnc4c3CCC(=O)N4)cc2C(F)(F)F)n(-c2cccc(F)c2)n1 [Compound 015, 1-[5-tert-butyl-2-(3-fluorophenyl)pyrazol-3-yl]-3-[4-[(7-oxo-6,8-dihydro-5H-1,8-naphthyridin-4-yl)oxy]-2-(trifluoromethyl)phenyl]urea] | ++ (50% ≤ cytotoxicity < 85%) | ++ (50% ≤ cytotoxicity < 85%) | 5.00 to 5.30 | 5.30 to 6.00 | > 6.00 | +++ (cytotoxicity ≥ 85%) | 5.30 to 6.00 | ++ (50% ≤ cytotoxicity < 85%) | 7.00 to 8.00 | ++ (50% ≤ cytotoxicity < 85%) | > 7.00 | +++ (angiogenesis inhibition ≥ 80%)
CSc1cc(Oc2ccnc3c2OCC(=O)N3)ccc1NC(=O)Nc1cc(C(C)(C)C)nn1-c1ccc(C)nc1 [Compound 019, 1-[5-tert-butyl-2-(6-methyl-3-pyridyl)pyrazol-3-yl]-3-[2-methylsulfanyl-4-[(3-oxo-4H-pyrido[3,2-b][1,4]oxazin-8-yl)oxy]phenyl]urea] | ++ (50% ≤ cytotoxicity < 85%) | ++ (50% ≤ cytotoxicity < 85%) | 5.30 to 6.00 | 5.30 to 6.00 | 5.30 to 6.00 | +++ (cytotoxicity ≥ 85%) | 5.30 to 6.00 | ++ (50% ≤ cytotoxicity < 85%) | 8.00 to 9.00 | +++ (cytotoxicity ≥ 85%) | > 7.00 | +++ (angiogenesis inhibition ≥ 80%)
CSc1cc(Oc2ccnc3c2OCC(=O)N3)ccc1NC(=O)Nc1cc(C(C)(C)C)nn1C [Compound 022, 1-(5-tert-butyl-2-methyl-pyrazol-3-yl)-3-[2-methylsulfanyl-4-[(3-oxo-4H-pyrido[3,2-b][1,4]oxazin-8-yl)oxy]phenyl]urea] | ++ (50% ≤ cytotoxicity < 85%) | ++ (50% ≤ cytotoxicity < 85%) | 5.30 to 6.00 | 5.30 to 6.00 | 5.30 to 6.00 | +++ (cytotoxicity ≥ 85%) | 5.30 to 6.00 | ++ (50% ≤ cytotoxicity < 85%) | > 9.00 | +++ (cytotoxicity ≥ 85%) | > 7.00 | ++ (80% > angiogenesis inhibition ≥ 50%)
CC(C)(C)c1cc(NC(=O)Nc2ccc(Oc3ccnc4c3CCC(=O)N4)cc2C(F)(F)F)no1 [Compound 024, 1-(5-tert-butylisoxazol-3-yl)-3-[4-[(7-oxo-6,8-dihydro-5H-1,8-naphthyridin-4-yl)oxy]-2-(trifluoromethyl)phenyl]urea] | ++ (50% ≤ cytotoxicity < 85%) | ++ (50% ≤ cytotoxicity < 85%) | 5.30 to 6.00 | 5.30 to 6.00 | 5.30 to 6.00 | ++ (50% ≤ cytotoxicity < 85%) | 5.30 to 6.00 | ++ (50% ≤ cytotoxicity < 85%) | 8.00 to 9.00 | +++ (cytotoxicity ≥ 85%) | 6.30 to 7.00 | ++ (80% > angiogenesis inhibition ≥ 50%)
CSc1cc(Oc2ccnc3c2CCC(=O)N3)ccc1NC(=O)Nc1cc(C(C)(C)C)on1 [Compound 026, 1-(5-tert-butylisoxazol-3-yl)-3-[2-methylsulfanyl-4-[(7-oxo-6,8-dihydro-5H-1,8-naphthyridin-4-yl)oxy]phenyl]urea] | ++ (50% ≤ cytotoxicity < 85%) | ++ (50% ≤ cytotoxicity < 85%) | 5.30 to 6.00 | 5.30 to 6.00 | 5.30 to 6.00 | +++ (cytotoxicity ≥ 85%) | 5.30 to 6.00 | ++ (50% ≤ cytotoxicity < 85%) | > 9.00 | +++ (cytotoxicity ≥ 85%) | 6.30 to 7.00 | +++ (angiogenesis inhibition ≥ 80%)
CN(C)Cc1cccc(-n2nc(C(C)(C)C)cc2NC(=O)Nc2ccc(Oc3ccnc4c3CCC(=O)N4)cc2C(F)(F)F)c1 [Compound 028, 1-[5-tert-butyl-2-[3-[(dimethylamino)methyl]phenyl]pyrazol-3-yl]-3-[4-[(7-oxo-6,8-dihydro-5H-1,8-naphthyridin-4-yl)oxy]-2-(trifluoromethyl)phenyl]urea] | ++ (50% ≤ cytotoxicity < 85%) | +++ (cytotoxicity ≥ 85%) | 5.30 to 6.00 | 5.30 to 6.00 | > 6.00 | +++ (cytotoxicity ≥ 85%) | 5.30 to 6.00 | +++ (cytotoxicity ≥ 85%) | 8.00 to 9.00 | ++ (50% ≤ cytotoxicity < 85%) | > 7.00 | +++ (angiogenesis inhibition ≥ 80%)
CC(C)(C)c1cc(NC(=O)Nc2ccc(Oc3ccnc4c3CCC(=O)N4)cc2C(F)(F)F)n(-c2cccnc2)n1 [Compound 030, 1-[5-tert-butyl-2-(3-pyridyl)pyrazol-3-yl]-3-[4-[(7-oxo-6,8-dihydro-5H-1,8-naphthyridin-4-yl)oxy]-2-(trifluoromethyl)phenyl]urea] | ++ (50% ≤ cytotoxicity < 85%) | ++ (50% ≤ cytotoxicity < 85%) | 5.00 to 5.30 | 5.00 to 5.30 | 5.30 to 6.00 | +++ (cytotoxicity ≥ 85%) | 5.30 to 6.00 | ++ (50% ≤ cytotoxicity < 85%) | 7.00 to 8.00 | ++ (50% ≤ cytotoxicity < 85%) | > 7.00 | +++ (angiogenesis inhibition ≥ 80%)
CSc1cc(Oc2ccnc3c2OCC(=O)N3)ccc1NC(=O)Nc1cc(C(C)(C)C)nn1-c1ccc(F)cc1F [Compound 031, 1-[5-tert-butyl-2-(2,4-difluorophenyl)pyrazol-3-yl]-3-[2-methylsulfanyl-4-[(3-oxo-4H-pyrido[3,2-b][1,4]oxazin-8-yl)oxy]phenyl]urea] | ++ (50% ≤ cytotoxicity < 85%) | ++ (50% ≤ cytotoxicity < 85%) | 5.30 to 6.00 | 5.30 to 6.00 | 5.30 to 6.00 | +++ (cytotoxicity ≥ 85%) | 5.30 to 6.00 | ++ (50% ≤ cytotoxicity < 85%) | 8.00 to 9.00 | +++ (cytotoxicity ≥ 85%) | 6.30 to 7.00 | +++ (angiogenesis inhibition ≥ 80%)
CSc1cc(Oc2ccnc3c2OCC(=O)N3)ccc1NC(=O)Nc1cc(C(C)(C)C)nn1-c1ccc(CN(C)C)cc1 [Compound 033, 1-[5-tert-butyl-2-[4-[(dimethylamino)methyl]phenyl]pyrazol-3-yl]-3-[2-methylsulfanyl-4-[(3-oxo-4H-pyrido[3,2-b][1,4]oxazin-8-yl)oxy]phenyl]urea] | +++ (cytotoxicity ≥ 85%) | +++ (cytotoxicity ≥ 85%) | 5.30 to 6.00 | 5.30 to 6.00 | > 6.00 | +++ (cytotoxicity ≥ 85%) | 5.30 to 6.00 | +++ (cytotoxicity ≥ 85%) | 8.00 to 9.00 | +++ (cytotoxicity ≥ 85%) | > 7.00 | +++ (angiogenesis inhibition ≥ 80%)
